What follows are compounds tested against T1, trypsin-activated recombinant human renin (Homo sapiens, UniProt P00797) (assay: Renin fluorescence assay (internally quenched peptide substrate)). Details: compounds I*.
T1 sequence (P00797 67-406): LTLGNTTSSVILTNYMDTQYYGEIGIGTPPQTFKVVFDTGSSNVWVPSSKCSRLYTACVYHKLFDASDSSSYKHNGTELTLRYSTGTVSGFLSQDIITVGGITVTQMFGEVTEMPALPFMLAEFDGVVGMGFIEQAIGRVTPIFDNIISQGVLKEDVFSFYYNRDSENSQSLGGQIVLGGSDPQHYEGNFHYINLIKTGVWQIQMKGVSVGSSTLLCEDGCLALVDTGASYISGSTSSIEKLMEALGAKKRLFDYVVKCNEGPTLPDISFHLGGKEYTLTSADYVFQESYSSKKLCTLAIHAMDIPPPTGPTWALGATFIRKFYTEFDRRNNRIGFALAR
Type: biochemical
Experimental: The sequence of this peptide corresponds to the sequence of human angiotensinogen. The following test protocol can be used. All reactions are carried out in a flat bottom white opaque microtiter plate. A 4 μL aliquot of 400 μM renin substrate (DABCYL-γ-[…]) in 192 μL assay buffer (50 mM BES, 150 mM NaCl, 0.25 mg/mL bovine serum albumin, pH7.0) is added to 4 μL of test compound in DMSO at various concentrations ranging from 10 μM to 1 nM final concentrations. Next, 100 μL of trypsin-activated recombinant human renin (final enzyme concentration of 0.2-2 nM) in assay buffer is added, and the solution is mixed by pipetting. The increase in fluorescence at 495 nm (excitation at 340 nm) is measured for 60-360 minutes at rt using a Perkin-Elmer Fusion microplate reader. The slope of a linear portion of the plot of fluorescence-increase as a function of time is then determined, and the rate is used for calculating percent inhibition in relation to uninhibited control. […] (Wang G. T. et al. Anal. Biochem. 1993, 210, 351; Nakamura, N. et al. J. Biochem. (Tokyo) 1991, 109, 741; Murakami, K. et al. Anal Biochem. 1981, 110, 232).
For `CNC[C@H](CC1CCCCC1)NC(=O)N1CCC[C@@H]([C@@H](OCCNC(=O)OC)c2ccccc2)C1` (mixture of isomers) [I*-2a, methyl 2-((R)—((R)-1-((±)-1-cyclohexyl-3-(methylamino)propan-2-ylcarbamoyl)piperidin-3-yl)(phenyl)methoxy)ethylcarbamate], the IC50 was under 10 nM.
`COC(=O)NCCO[C@@H](c1cccc(Cl)c1)[C@@H]1CCCN(C(=O)N[C@H]2CNC[C@@H]2CC(C)C)C1` (relative stereo) [I*-11a, methyl 2-((R)-(3-chlorophenyl)((R)-1-((3R*,4S*)-4-isobutylpyrrolidin-3-ylcarbamoyl)piperidin-3-yl)methoxy)ethylcarbamate] gave an IC50 of under 50 nM.
`COC(=O)NCCO[C@@H](c1cccc(Cl)c1)[C@@H]1CCCN(C(=O)N[C@@H]2CNCC[C@H]2CC2CCC2)C1` (relative stereo) [I*-44a, methyl 2-((R)-(3-chlorophenyl)((R)-1-((3S*,4R*)-4-(cyclobutylmethyl)piperidin-3-ylcarbamoyl)piperidin-3-yl)methoxy)ethylcarbamate] showed an IC50 of under 10 nM.
`CNC[C@@H](C[C@H]1CCCC[C@@H]1O)NC(=O)N1CCC[C@@H]([C@@H](OCCNC(=O)OC)c2cccc(Cl)c2)C1` (relative stereo) [I*-104a, methyl 2-((R)-(3-chlorophenyl)((R)-1-((R)-1-((1R*,2S*)-2-hydroxycyclohexyl)-3-(methylamino)propan-2-ylcarbamoyl)piperidin-3-yl)methoxy)ethylcarbamate] gave an IC50 of under 20 nM.
For `CNC[C@H](C[C@H]1CCCC[C@@H]1O)NC(=O)N1CCC[C@@H]([C@@H](OCCNC(=O)OC)c2cccc(Cl)c2)C1` (relative stereo) [I*-105a, methyl 2-((R)-(3-chlorophenyl)((R)-1-((S)-1-((1R,2S)-2-hydroxycyclohexyl)-3-(methylamino)propan-2-ylcarbamoyl)piperidin-3-yl)methoxy)ethylcarbamate], the IC50 was under 10 nM.
`CNC[C@H](CCCOC)NC(=O)N1CCC[C@@H]([C@@H](OCCNC(=O)OC)c2cccc(Cl)c2)C1` [I*-1a] gave an IC50 of over 50 nM.
`CNC[C@H](CC1CCOCC1)NC(=O)N1CCC[C@@H]([C@@H](OCCNC(=O)OC)c2ccccc2)C1` [I*-3a, methyl 2-((R)—((R)-1-((S)-4-(methylamino)-3-(tetrahydro-2H-pyran-4-yl)propan-2-ylcarbamoyl)piperidin-3-yl)(phenyl)methoxy)ethylcarbamate] was tested, and the IC50 was under 50 nM.
In the case of `COC(=O)NCCO[C@@H](c1cccc(F)c1)[C@@H]1CCCN(C(=O)N[C@H](CN)CC2CCCCC2)C1` [I*-4a, methyl 2-((R)-((R)-1-((S)-1-amino-3-cyclohexylpropan-2-ylcarbamoyl)piperidin-3-yl)(3-fluorophenyl)methoxy)ethylcarbamate], the IC50 is reported as under 1 nM.
`CNC[C@H](CC1CCCC1)NC(=O)N1CCC[C@@H]([C@@H](OCCNC(=O)OC)c2cccc(F)c2)C1` [I*-5a, methyl 2-((R)—((R)-1-((S)-1-cyclopentyl-3-(methylamino)propan-2-ylcarbamoyl)piperidin-3-yl)(3-fluorophenyl)methoxy)ethylcarbamate] showed an IC50 of under 10 nM.
`CNC[C@H](CC1CCOC1)NC(=O)N1CCC[C@@H]([C@@H](OCCNC(=O)OC)c2cccc(F)c2)C1` (stereo partly drawn) [I*-6a, methyl 2-((R)-(3-fluorophenyl)((3R)-1-((S)-1-(methylamino)-3-(tetrahydrofuran-3-yl)propan-2-ylcarbamoyl)piperidin-3-yl)methoxy)ethylcarbamate] gave an IC50 of over 50 nM.
In the case of `CCC(C)(C)C[C@@H](CNC)NC(=O)N1CCC[C@@H]([C@@H](OCCNC(=O)OC)c2cccc(F)c2)C1` [I*-7a, methyl 2-((R)-((R)-1-((S)-4,4-dimethyl-1-(methylamino)hexan-2-ylcarbamoyl)piperidin-3-yl)(3-fluorophenyl)methoxy)ethylcarbamate], the IC50 is reported as under 10 nM.
Compound `CNC[C@H](CC1CCCCC1)NC(=O)N1CCC[C@@H]([C@@H](OCCNC(=O)OC)c2cccs2)C1` [I*-9a, methyl 2-((R)-((R)-1-((S)-1-cyclohexyl-3-(methylamino)propan-2-ylcarbamoyl)piperidin-3-yl)(thiophen-2-yl)methoxy)ethylcarbamate] has an IC50 of under 1 nM.
`CNC[C@H](CC1CCCCC1)NC(=O)N1CCC[C@@H]([C@@H](OCCNC(=O)OC)C2CCCCC2)C1` [I*-10a, methyl 2-((S)-cyclohexyl((R)-1-((S)-1-cyclohexyl-3-(methylamino)propan-2-ylcarbamoyl)piperidin-3-yl)methoxy)ethylcarbamate] gave an IC50 of under 10 nM.
`CNC[C@H](CC1CCCCC1)NC(=O)N1CCC[C@@H]([C@H](OCCNC(=O)OC)c2nccs2)C1` [I*-12a, methyl 2-((S)-((R)-1-((S)-1-cyclohexyl-3-(methylamino)propan-2-ylcarbamoyl)piperidin-3-yl)(thiazol-2-yl)methoxy)ethylcarbamate] was tested, and the IC50 was over 50 nM.
With `CNC[C@H](CC1CCCCC1)NC(=O)N1CCC[C@@H]([C@@H](OCCNC(=O)OC)c2nccs2)C1` [I*-13a, methyl 2-((R)-((R)-1-((S)-1-cyclohexyl-3-(methylamino)propan-2-ylcarbamoyl)piperidin-3-yl)(thiazol-2-yl)methoxy)ethylcarbamate] the IC50 was under 20 nM.
For `COCC(C)(C)C[C@H](N)CNC(=O)N1CCC[C@@H]([C@@H](OCCNC(=O)OC)c2cccc(F)c2)C1` [I*-14a, methyl 2-((R)—((R)-1-((S)-2-amino-5-methoxy-4,4-dimethylpentylcarbamoyl)piperidin-3-yl)(3-fluorophenyl)methoxy)ethylcarbamate], the IC50 was over 50 nM.
Compound `CNC[C@H](CC1CCOCC1)NC(=O)N1CCC[C@@H]([C@@H](OCCNC(=O)OC)c2cccs2)C1` [I*-15a, methyl 2-((R)-((R)-1-((S)-1-(methylamino)-3-(tetrahydro-2H-pyran-4-yl)propan-2-ylcarbamoyl)piperidin-3-yl)(thiophen-2-yl)methoxy)ethylcarbamate] has an IC50 of over 50 nM.
With `CNC[C@H](CC1CCOCC1)NC(=O)N1CCC[C@@H]([C@H](OCCNC(=O)OC)c2cccs2)C1` [I*-16a, methyl 2-((S)-((R)-1-((S)-1-(methylamino)-3-(tetrahydro-2H-pyran-4-yl)propan-2-ylcarbamoyl)piperidin-3-yl)(thiophen-2-yl)methoxy)ethylcarbamate] the IC50 was over 50 nM.
`CNC[C@H](CC1CCCCC1)NC(=O)N1CCC[C@@H]([C@@H](OCCNC(=O)OC)c2cccc(C)c2)C1` [I*-18a, methyl 2-((R)-((R)-1-((S)-1-cyclohexyl-3-(methylamino)propan-2-ylcarbamoyl)piperidin-3-yl)(m-tolyl)methoxy)ethylcarbamate] gave an IC50 of under 1 nM.
In the case of `CNC[C@@H](NC(=O)N1CCC[C@@H]([C@@H](OCCNC(=O)OC)c2ccccc2)C1)[C@@H](O)C1CCCCC1` [I*-19a, methyl 2-((R)—((R)-1-((1S,2R)-1-cyclohexyl-1-hydroxy-3-(methylamino)propan-2-ylcarbamoyl)piperidin-3-yl)(phenyl)methoxy)ethylcarbamate], the IC50 is reported as under 10 nM.
`CNC[C@H](CC1CCOCC1)NC(=O)N1CCC[C@@H]([C@@H](OCCNC(=O)OC)c2cccc(C)c2)C1` [I*-20a, methyl 2-((R)-((R)-1-((S)-1-(methylamino)-3-(tetrahydro-2H-pyran-4-yl)propan-2-ylcarbamoyl)piperidin-3-yl)(m-tolyl)methoxy)ethylcarbamate] showed an IC50 of under 50 nM.
Compound `CNC[C@H](C[C@H]1CCCCOC1)NC(=O)N1CCC[C@@H]([C@@H](OCCNC(=O)OC)c2ccccc2)C1` [I*-21a, Methyl 2-((R)—((R)-1-((S)-1-(methylamino)-3-((R)-oxepan-3-yl)propan-2-ylcarbamoyl)piperidin-3-yl)(phenyl)methoxy)ethylcarbamate] has an IC50 of under 10 nM.
Compound `CNC[C@H](CC1CCCCC1)NC(=O)N1CCC[C@@H]([C@H](CCCNC(=O)OC)c2cccc(F)c2)C1` [I*-22a, methyl (S)-4-((S)-1-((S)-1-cyclohexyl-3-(methylamino)propan-2-ylcarbamoyl)piperidin-3-yl)-4-(3-fluorophenyl)butylcarbamate] has an IC50 of over 50 nM.
Work on `CNC[C@H](CC1CCCCC1)NC(=O)N1CCC[C@@H]([C@@H](CCCNC(=O)OC)c2cccc(F)c2)C1` [I*-23a, methyl (R)-4-((S)-1-((S)-1-cyclohexyl-3-(methylamino)propan-2-ylcarbamoyl)piperidin-3-yl)-4-(3-fluorophenyl)butylcarbamate] yielded an IC50 of under 10 nM.
Work on `CNC[C@H](CC1CCCC1)NC(=O)N1CCC[C@@H]([C@@H](OCCNC(=O)OC)c2cc(F)ccc2C)C1` [I*-24a, methyl 2-((R)—((R)-1-((S)-1-cyclopentyl-3-(methylamino)propan-2-ylcarbamoyl)piperidin-3-yl)(5-fluoro-2-methylphenyl)methoxy)ethylcarbamate] yielded an IC50 of under 1 nM.

From patent publication US8487108B2, “Piperidinyl carbamate intermediates for the synthesis of aspartic protease inhibitors” (Vitae Pharmaceuticals, Inc., priority 2005, dated 2013)
